Experimental data published in patent US20100130476A1, “COMPOUNDS THAT INDUCE PANCREATIC BETA-CELL EXPANSION” (The Scripps Research Institute, priority 2008, published 2010).
“Also recorded” adds a separate entry of the source.

Columns and labels:
[1] = tested on: Super (8×) TOPFlash reporter; experiment: Super (8×) TOPFlash Wnt reporter in HEK293 cells; type: cell-based
Experimental: (§1) (A) Chemical structures of 5-thiophene pyrimidines. […] Relative luminescence unit (RLU) was measured by CellTiter-Glo assay after 7-day incubation of growth-arrested R7T1 β cells with 1a, which was added at day 0 and refreshed at day 4; experiments were performed in quadruplicate. All data in this paper are presented as mean±SD, unless otherwise specified. (C) Dose-dependent effects of 1a on the activation of Super (8×) TOPFlash reporter. HEK293 cells transfected with Super (8×) TOPFlash reporter were treated with 1a at the indicated concentrations 24 h after transfection. Luciferase activity was measured 48 h after compound treatment. (D and E) The proliferative effect of 1a on rat primary β cells. (D) After incubation for 72 h with 2 μM 1a, replicating β cells were identified by double-immunofluorescence staining by using anti-C-peptide antibody to mark β cells (green) and antibody against Ki-67, a proliferation marker (red). Nuclear DNA was stained with DAPI (blue). (Scale bar, 10 μm.) (E) The percentage of Ki-67-positive cells of all C-peptide-positive cells, which corresponds to the fraction of replicating β cells. The number of proliferating primary β cells increased after incubation for 72 h in the presence of 2 μM 1a compared with DMSO control: 1a at 2 μM increases the replicating β cells ≈2-fold. (F) Compound 1a stimulates the translocation of β-catenin into the nucleus. Nuclear β-catenin accumulation (green arrows) was increased in 10 μM 1a-treated HEK293 cells; in DMSO-treated control cells, β-catenin staining is weak and appears to concentrate at the cell surface. […] CellTiter-Glo activity was measured 7 days after compound treatment.

[2] = tested on: growth-arrested R7T1 β cells; experiment: R7T1 β-cell proliferation, CellTiter Glo assay (high-throughput screen and follow-up); type: cell-based, mouse; conditions: for expansion of the pancreatic β-cell population: high-throughput screen, CellTiter Glo at Day 8, screen concentration 1.25 μM
Experimental: (§2) R7T1 β-cells are expanded in growth medium (DMEM with 15% horse serum and 2.5% FBS) in the presence of 10 μg/ml doxycycline. (3TC-tet cells are expanded in growth medium (DMEM with 15% horse serum and 2.5% FBS) in the absence of 10 μg/ml doxycycline. Hamster HIT-T15 β-cells are grown in F12 medium with 15% horse serum and 2.5% FBS. MIN6 cells are cultured in DMEM with 15% FBS. HEK293 cells are grown according to instructions from ATCC (http://www.atcc.org/).
R7T1 β-cells are expanded in large quantities in growth medium in the presence of 10 μg/ml doxycycline and then are growth arrested by removal of doxycycline for one week. For the primary screen, growth-arrested cells are plated onto 384- or 1536-well plates in growth medium without doxycycline at a density of 4000 cells/well in 384-well plate or 1000 cells/well in 1536-well plate in an automated high-throughput screening platform (designated as Day 0). […] For data analysis, the median of a plate is calculated and the activity of each well is the signal/median of the plate. A signal in any well over 1.5 of the median is regarded as a primary hit. For the reconfirmation screen, growth-arrested R7T1 cells are plated onto 384-well plates and screened against all primary hits in quadruplicate. To eliminate tetracycline mimetics among all reconfirmed primary hits, βTC-tet cells are plated onto 384-well plates at a density of 2000 cells/well in growth medium in the presence of 10 μg/ml doxycycline, and 1.25 μM compound is added after overnight incubation and refreshed 4 days later. The effects on β-cell replication are then determined at Day 8 using the CellTiter Glo assay system. Any compound that increases the readings more than 1.5 fold is regarded as a hit.
SV40 T antigen (TAg) oncoprotein under the control of the Tet-On system was used to immortalize mouse β cells so that these engineered β cells proliferate when TAg is induced in the presence of tetracycline (Tet), but undergo growth arrest upon withdrawal of Tet (see, Efrat S, et al., Proc. Natl. Acad. Sci. USA 92:3576-3580 (1995); Fleischer N, et al, Diabetes 47:1419-1425 (1998); and Milo-Landesman D, et al., Cell Transplant. 10:645-650 (2001)). Although not a true mimic of in vivo quiescent β cells, this system should allow us to identify small molecules that are able to induce reentry into cell cycle and proliferation of growth-arrested cells. Indeed, these engineered cells express high levels of β-cell signature markers, including insulin 1, insulin 2, and Pdx1, and are able to secrete insulin and restore and maintain euglycemia in STZ-treated diabetic mice when induced to growth arrest and transplanted (see, Efrat S, et al., supra; and Milo-Landesman D, et al., supra). A total of ≈850,000 compounds were screened with an automated high-throughput screening platform for their ability to induce the proliferation of growth-arrested β cells in either a 384- or 1,536-well plate format. In the primary screen, proliferation was assayed by using a luminescent assay measuring intracellular ATP content, which is directly proportional to viable cell number (see, Materials and Methods). To rule out any possible Tet mimetics that induce the proliferation of β cells through the induction of SV40 TAg expression, the Tet-Off immortalized β-cell line βTC-Tet was used for a counterscreen.

[3] = biological target: 65 kinases; experiment: Kinase profiling; type: biochemical; conditions: 5 μM; 65 kinases profiled
[4] = tested on: HIT-T15 β cells; experiment: HIT-T15 β-cell proliferation (BrdU incorporation assay); type: cell-based, Hamster
Experimental: as §2

[5] = biological target: GSK3-β (Homo sapiens, UniProt P49841); experiment: GSK3-β inhibition; type: biochemical; conditions: preliminary investigation
Chain of GSK3-β (P49841 whole entry, species assumed): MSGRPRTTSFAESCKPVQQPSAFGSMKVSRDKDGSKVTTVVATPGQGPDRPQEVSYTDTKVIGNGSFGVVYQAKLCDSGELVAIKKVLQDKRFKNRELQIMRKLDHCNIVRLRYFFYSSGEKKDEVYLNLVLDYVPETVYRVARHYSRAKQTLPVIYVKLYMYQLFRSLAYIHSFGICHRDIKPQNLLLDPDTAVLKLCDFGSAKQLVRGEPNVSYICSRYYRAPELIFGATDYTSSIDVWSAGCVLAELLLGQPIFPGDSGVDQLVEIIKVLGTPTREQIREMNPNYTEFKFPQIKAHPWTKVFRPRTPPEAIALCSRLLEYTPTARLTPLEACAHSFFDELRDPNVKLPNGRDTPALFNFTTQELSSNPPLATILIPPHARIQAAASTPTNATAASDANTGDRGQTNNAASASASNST

[6] = tested on: rat primary β cells; experiment: Primary β-cell proliferation assay, rat (C-peptide/Ki-67 double staining); type: cell-based; conditions: for increase in replicating primary rat β cells (Ki-67/C-peptide): 72 h, compared with DMSO; for increase in rat C-peptide/Ki-67 double positive β-cells: 72 hours (3 days), concentration not given
Experimental: (§3) Islets are isolated by the standard Liberase digestion method from the pancreata of adult Sprague-Dawley rats (200-250 g) (Liberase III; Roche Applied Science) and cultured in RPMI medium with 10% FBS. Briefly, 6 ml of ice-cold Liberase solution (Roche Applied Science) is injected into the pancreas via the common bile duct. After dissection, the pancreas is incubated for 35 minutes at 37° C. and then further dissociated by repeated pipetting using a 10-ml pipette. Islets are purified by Histopaque-1.077 (Sigma) density gradient centrifugation and are manually picked using a stereomicroscope. […] Human islets are obtained through the Juvenile Diabetes Research Foundation Islet Distribution Program by Islet Cell Resource Center in Minnesota, USA. The purity and viability of human islets are reported to be 30-70% and 50-70%, respectively. Human islets are cultured in CMRL medium containing 10% FBS.
(§4) Islets or single suspension cells are fixed with 4% formalin solution (Sigma) and stained by standard immuno-fluorescence techniques for C-peptide (anti-human C-peptide antibody from Raybiotech, Inc., and anti-rat C-peptide antibody from Linco, Inc.) and Ki-67 (anti-Ki-67 antibody from Abcam), a marker of proliferating cells. Nuclear DNA is stained with DAPI (Molecular Probes). At least 30,000 C-peptide positive cells are counted in each experiment, performed in triplicate. The images are taken on a Nikon Eclipse TE300 microscope with 200× magnification. Proliferating C-peptide/Ki-67 double positive β-cells are counted manually.

[7] = tested on: MIN6 cells; experiment: MIN6 β-cell proliferation (BrdU incorporation assay); type: cell-based
Experimental: as §2

[8] = tested on: Wnt reporter whose β-catenin/TCF binding sites are mutated; experiment: Mutated Wnt reporter; type: cell-based; conditions: data not shown
[9] = tested on: β-catenin; experiment: Nuclear β-catenin translocation in HEK293 cells; type: cell-based; conditions: 10 μM, versus DMSO, listed as 1a
Experimental: as §1, with “≈2-fold.” for “≈2-fold. (F) Compound 1a stimulates the translocation of β-catenin into the nucleus. Nuclear β-catenin accumulation (green arrows) was increased in 10 μM 1a-treated HEK293 cells; in DMSO-treated control cells, β-catenin staining is weak and appears to concentrate at the cell surface.”

[10] = tested on: Ras; experiment: Ras activation analysis (GST-Raf1 RBD pull-down); type: cell-based, mouse; conditions: growth-arrested R7T1 β cells; for Ras-GTP level / Ras signaling (in words): 0.5 μM
Experimental: Ras-GTP levels are detected using the Active Ras Pull-Down and Detection Kit, following the manufacturer's instructions (Pierce). Briefly, growth-arrested R7T1 β-cells are treated with 0.5 μM of a compound of the invention for an indicated time. Cells are then washed twice with ice-cold phosphate-buffered saline (PBS) and lysed in Lysis/Binding/Wash Buffer containing protease inhibitor cocktail [Roche]. Lysates (500 μg) are clarified by centrifugation and supernatants are incubated with 80 μg of GST-Raf1-RBD fusion protein precoupled to glutathione-Sepharose beads. After incubation for 1 hour at 4° C., beads are washed three times in Lysis/Binding/Wash Buffer, resuspended in Laemmli buffer and boiled. Samples are analyzed by SDS-PAGE (4-20%) followed by transfer to nitrocellulose membrane and then are probed with anti-Ras antibody. Blots are developed using the enhanced ECL system.

[11] = tested on: MIN6 cells; experiment: Calcium influx assay (fluo-3, FLIPR); type: cell-based; conditions: MIN6 β cells
Experimental: Calcium Influx Assay.Measurement of intracellular Ca^2+ ([Ca^2+]i) was performed by using a fluorescence laser-imaging plate reader (FLIPR; Molecular Devices). Briefly, MIN6 cells cultured in 384-well plates were incubated for 1 h with 4 μM fluo-3/AM (Molecular Probes) and 0.04% pluronic acid in physiological Locke's buffer (154 mM NaCl, 5.6 mM KCl, 1.0 mM MgCl2, 2.3 mM CaCl2, 8.6 mM Hepes, 5.6 mM glucose, and 0.1 mM glycine [pH 7.4]). After incubation, MIN6 cells were washed with Locke's buffer by using an automated cell washer to remove extracellular dye. MIN6 cells were treated with compounds at the indicated concentrations. These cells were excited at 488 nm and Ca^2+-bound fluo-3 emission was recorded at 500-560 nm.

[12] = tested on: growth-arrested R7T1 β cells; experiment: Microarray analysis of gene expression; type: cell-based, mouse
Experimental: RNA extraction from R7T1 β-cells treated with compounds at the indicated time points is performed using RNeasy kits (Qiagen). The integrity and concentration of RNA is determined by microfluidic analysis on an Experion instrument (BioRad). Standard Affymetrix single amplification is performed using 5 μg total RNA. Standard Affymetrix protocols are used to process Affymetrix MOE430—2 microarrays (Affymetrix). All CEL file images are processed as a single group using gcRMA.

[13] = tested on: human primary β cells; experiment: Primary β-cell proliferation assay, human (C-peptide/Ki-67 double staining); type: cell-based
Experimental: as §3, §4

## CC1=C(CC(=O)O)c2cc(F)ccc2/C1=C\c1ccc([S+](C)[O-])cc1 (stereo not drawn) [Sulindac]
[1]
  effect on 1a-stimulated Wnt activation: abolished
[2]; 60 μM Sulindac with 10 μM 1a, CellTiter-Glo after 7 days
  effect on 1a-stimulated β-cell proliferation: abolished

## CN1CCN(C(=O)c2ccc(Nc3nccc(-c4cccs4)n3)cc2Cl)CC1 [Example 1, (2-chloro-4-(4-(thiophen-2-yl)pyrimidin-2-ylamino)phenyl)(4-methylpiperazin-1-yl)methanone]
[1]; 10 μM
  activation of the Wnt reporter compared with DMSO: 15 fold
[1]; Homo sapiens, HEK293 cells, luciferase 48 h after compound treatment, read-out: EC50 of induction of Super (8×) TOPFlash reporter
  EC50: ~1.25 µM
[3]
  kinases profiled that were inhibited by >75%: 7 of 65
[4]
  proliferation of HIT-T15 β cells (in words): promote the proliferation
[5]
  IC50: 0.064 µM
[2]; Mus musculus, 168 h, CellTiter-Glo after 7-day incubation, read-out: EC50 of replication of growth-arrested R7T1 β cells
  EC50: ~1.1 µM
[2]
  expansion of the pancreatic β-cell population: 2.5 fold
[6]; 2 μM
  increase in replicating primary rat β cells (Ki-67/C-peptide): ≈ 2 fold
[6]
  increase in rat C-peptide/Ki-67 double positive β-cells: 2 fold
[7]
  proliferation of MIN6 β cells (in words): promote the proliferation
[8]
  activity on mutated Wnt reporter: no activity
[9]
  nuclear β-catenin accumulation: Increased nuclear β-catenin accumulation

## COc1ccc(CCNc2nc(N3CCCC3CO)nc3ccccc23)cc1 (stereo not drawn) [Example 9, (1-(4-(4-methoxyphenethylamino)quinazolin-2-yl)pyrrolidin-2-yl)methanol]
[2]
  expansion of the pancreatic β-cell population: 3 fold

## COC(=O)C1=C(C)NC(C)=C([N+](=O)[O-])[C@H]1c1ccccc1C(F)(F)F [Example 2a, (S)-methyl 2,6-dimethyl-5-nitro-4-(2-(trifluoromethyl)phenyl)-1,4-dihydropyridine-3-carboxylate]
[4]
  proliferation of HIT-T15 β cells (in words): increased proliferation
[10]
  time of peak Ras-GTP level: 10 min
  Ras-GTP level / Ras signaling (in words): elevated; also recorded: Activation
[10]; listed as (S)-methyl 2,6-dimethyl-5-nitro-4-(2-(trifluoromethyl)phenyl)-1,4-dihydropyridin
  Ras-GTP level / Ras signaling (in words): activates the Ras pathway
[11]; fluo-3, FLIPR
  increase in transient intracellular calcium levels: 10 fold
[11]; fluo-3, FLIPR up to 5 min
  calcium influx (in words): stimulated
[2]
  duration of R7T1 proliferation in the presence of the compound: up to 3 weeks
  time to stop of proliferation after removal of the compound: ≤ 1 week
[2]; CellTiter-Glo, 7 days
  effect on growth-arrested R7T1 β cells (in words): β-cell proliferation
[12]; 0.5 μM
  expression of IRS2: 1.7 fold
[12]; 0.5 μM, 24 h
  expression of Ccnd2 (cyclin D2): approximately 1.7 fold
[12]; 2-6 h after treatment
  expression of RasGEFs (RasGRF1, RasGEF1b) (in words): transcriptionally up-regulated; also recorded: activated
[12]; 2a 1 μM, Ex-4 5 nM where combined, 2 h to 24 h
  expression of Ccnd2 (in words): increased; also recorded: up-regulated
[12]; pretreatment versus posttreatment, data not shown
  expression of β-cell signature markers insulin 1, insulin 2, Pdx1: unchanged
[12]; within 30 min, 0.5 μM or 1 μM 2a, Ex-4 5 nM where combined
  expression of immediate-early genes (Fos, Jun, Egr, Ier families): large increase; also recorded: highly induced
[6]; 1 μM
  increase in replicating primary rat β cells (Ki-67/C-peptide): ≈ 2.5 fold
[6]
  increase in rat C-peptide/Ki-67 double positive β-cells: 2.5 fold
[7]
  proliferation of MIN6 β cells (in words): increased proliferation
[13]; 1 μM, 72 h, compared with DMSO
  increase in proliferating human primary β cells: ≈ 1.5 fold
[13]; 72 hours, concentration not given
  increase in human C-peptide/Ki-67 double positive β-cells: 1.5 fold
[13]; human islets, 3 days, 2a 1 μM, Ex-4 5 nM where combined
  number of proliferating human primary β cells (in words): increase the number of proliferating human β cells
